According to patent US20230032101A1, “FIVE-MEMBERED HETEROCYCLIC OXOCARBOXYLIC ACID COMPOUND AND MEDICAL USE THEREOF” (Shanghai Institute of Materia Medica, Chinese Academy of …, priority 2019, published 2023):

Key:
[1] = target: human-derived STING (Homo sapiens, UniProt Q86WV6); settings: cited from earlier work
[2] = tested on: type I interferon pathway in murine Raw-lucia cells; assay: Activation of type I interferon pathway in murine Raw-lucia cells (QUANTI-Luc luminescence); assay type: cell-based; settings: Mus musculus, 24 h, Compound Luminescence/Control Luminescence, ≥2 times considered valid, read-out: Fold Change
Description: Raw-lucia cells were counted, the cell concentration was adjusted to 5×10^5/mL, and 180 μL of cells were added to each well for incubation. 20 μL of compound diluted with physiological saline was added to each well of a 96-well cell culture plate after cells were adhered, the concentration of the compound was 50 μM/100 μM.
After 24 hours, 20 μL of the culture medium was took out from each well to a new 96-well plate with bottom-transmitting, 50 μL of the luciferase detection reagent QUANTI-Luc™ was added, and the […] was measured immediately (in the dark). The experiment was repeated twice.

[3] = tested on: type I interferon pathway (ISG) in human THP1-Blue-ISG cells; assay: Activation of type I interferon pathway (ISG) in human THP1-Blue-ISG cells (Quanti-Blue, OD650); assay type: cell-based; settings: 24 h, Compound OD650/Control OD650, ≥2 times considered valid, read-out: Fold Change
[4] = tested on: CT26 mouse colon cancer cells; assay: CT26 colon cancer subcutaneous xenograft model in vivo; settings: Balb/C mice, intratumoral injection (IT), days 1/2/3/4/7; FIG. 2
Description: […] When the tumor volume grew to about 100 mm^3, the mice were randomly divided into 5 groups, 6 mice in each group.
(§1) Experimental results were evaluated in the form of tumor volume growth curves.

[5] = tested on: type I interferon pathway (ISG) in human THP1-Blue-ISG cells; assay: Activation of type I interferon pathway (ISG) in human THP1-Blue-ISG cells (Quanti-Blue, OD650); assay type: cell-based; settings: Homo sapiens, THP1-Blue ISG; 10 μM, 24 h; Compound OD650/Control OD650; ≥2 times considered valid; read-out: Fold Change
Description: 20 μL of compound diluted with physiological saline was added to each well of a 96-well cell culture plate, the positive control compound was ADU-S100, and the solvent control group was added with 20 μL of physiological saline containing DMSO. THP1-Blue-ISG cells were counted, the cell concentration was adjusted to 5×10^5/mL, and 180 μL of cells were added to each well for incubation. Therefore, the final volume of each test well was 200 μL, the content of DMSO was 0.1%/0.5%, the test concentration of the compound was 10/50 μM, and the positive control compound was ADU-S100 at a final concentration of 10 μM, and incubated for 24 hours for detection.
After 24 hours, 20 μL of the culture solution was took out from each well to a new 96-well plate, 180 μL of chromogenic solution Quanti-Blue was added, placed in a 37° C. incubator, and the OD650 value was measured after 0.5-2 hours. The experiment was repeated twice.
The experimental results were used to evaluate the ability of compounds to induce the secretion of type I interferon pathway (ISG) by the Fold Change, which was calculated as follows:
Fold Change=Compound OD650/Control OD650, wherein the results of ≥2 times were considered valid.

[6] = tested on: 4T1 mouse breast cancer cells; assay: 4T1 breast cancer orthotopic tumor model in vivo; settings: Balb/C mice, intratumoral injection (IT), days 1/2/3/4/7; FIG. 1
Description: 6-8 week old Balb/C mice were inoculated with 2.5×10^5 4T1 mouse breast cancer cells in the mammary fat pad of each mouse. When the tumor volume grew to about 100 mm^3, the mice were randomly divided into 5 groups, 6 mice in each group.
as §1

Chain of human-derived STING (Q86WV6 whole entry H232R): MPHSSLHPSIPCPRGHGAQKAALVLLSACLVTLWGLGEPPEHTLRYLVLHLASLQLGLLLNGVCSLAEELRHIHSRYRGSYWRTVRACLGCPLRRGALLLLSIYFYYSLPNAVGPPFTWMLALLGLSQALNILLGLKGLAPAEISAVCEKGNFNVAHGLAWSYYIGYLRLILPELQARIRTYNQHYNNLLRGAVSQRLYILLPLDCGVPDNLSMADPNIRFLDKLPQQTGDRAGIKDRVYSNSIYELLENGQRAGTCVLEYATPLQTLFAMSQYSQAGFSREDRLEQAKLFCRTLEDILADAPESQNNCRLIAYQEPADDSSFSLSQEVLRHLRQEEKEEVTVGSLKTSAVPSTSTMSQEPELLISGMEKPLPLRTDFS

Cc1ccc2c(=O)c3cccc(CC(=O)O)c3oc2c1C [DMXAA]
agonistic effect on STING [1]: ineffective

O=C(O)CCC(=O)c1cc(-c2coc3c(F)cccc23)cs1 [I′-55, 4-(4-(7-fluorobenzofuran-3-yl)thiophen-2-yl)-4-oxobutyric Acid]
fold induction at 50 µM [2]: 12.2 | fold induction at 30 µM [3]: 16

O=C(O)CCC(=O)c1cc(-c2coc3cc(F)ccc23)co1 [I′-42, 4-(4-(6-fluorobenzofuran-3-yl)furan-2-yl)-4-oxobutyric Acid]
fold induction at 100 µM [2]: 7.45 | fold induction at 30 µM [3]: 16.8

O=C(O)CCC(=O)c1cc(-c2coc3ccccc23)cs1 [I′-14, 4-(4-(benzofuran-3-yl)thiophen-2-yl)-4-oxobutyric Acid]
fold induction at 100 µM [2]: 18.1 | fold induction at 25 µM ([3]; 25 μM): 20.7

O=C(O)CCC(=O)c1cc(-c2c[nH]c3ccccc23)cs1 [I′-31, 4-(4-(1H-indol-3-yl)thiophen-2-yl)-4-oxobutyric Acid]
anti-tumor effect (tumor volume growth curves) [4]: significant anti-tumor effect | tumor regression [4]: tumor regression effect is achieved in some mouse tumor models | fold induction at 10 µM [5]: 13.8 | fold induction at 50 µM [2]: 21.8 | anti-tumor effect (tumor volume growth curves) [6]: significant anti-tumor effect | tumor regression [6]: tumor regression effect is achieved in some mouse tumor models

O=C(O)CCC(=O)c1cc(-c2c[nH]c3ccccc23)co1 [I′-30, 4-(4-(1H-indol-3-yl)furan-2-yl)-4-oxobutyric Acid]
fold induction at 100 µM [2]: 8.13 | fold induction at 12.5 µM ([3]; 12.5 μM): 22.7
